Data on 1 molecule can be found in patent US8252796B2, “1-butyl-2-hydroxyaralkyl piperazine derivatives and the uses as anti-depression medicine thereof” (CSPC Zhonggi Pharmaceutical Technology (Shijiazhuang) Co. …, priority 2008, dated 2012).

Type in all cases: biochemical
Assay [1] has as its target T1, 5-HT reuptake, Rat brain synaptosome (Rattus norvegicus, UniProt P31652).
T1 construct: Rat brain; from tissue; host or cells: rat brain synaptosomes
The experiment in a line: 5-HT reuptake, optical isomers (Example 37). To be noted: 15 min/37° C. An excerpt: (§1) 3. Experiment Results (IC50 Value was Obtained by Nonlinear Regression Analysis of Inhibition Rate/Concentration Response Curve)

Assay [2] concerns the target T2, DA reuptake, Rat striatum synaptosome (Rattus norvegicus, UniProt P23977).
T2 construct: Rat striatum; from tissue; host or cells: rat striatum synaptosomes
The experiment in a line: DA reuptake, optical isomers (Example 37). As to conditions: 15 min/37° C.
From the text: as §1

In assay [3] the target is T3, NE reuptake, Rat hypothalamus synaptosome (Rattus norvegicus, UniProt Q9WTR4).
T3 construct: hypothalamus; from tissue; host or cells: rat hypothalamus synaptosomes
Put plainly: NE reuptake, optical isomers (Example 37). To be noted: 20 min/37° C.
From the text: as §1

A word on the IC50: it is the point on the concentration scale where inhibition reaches its midpoint. Read a high IC50 as weaker potency in that assay.

T1 sequence (P31652 whole entry): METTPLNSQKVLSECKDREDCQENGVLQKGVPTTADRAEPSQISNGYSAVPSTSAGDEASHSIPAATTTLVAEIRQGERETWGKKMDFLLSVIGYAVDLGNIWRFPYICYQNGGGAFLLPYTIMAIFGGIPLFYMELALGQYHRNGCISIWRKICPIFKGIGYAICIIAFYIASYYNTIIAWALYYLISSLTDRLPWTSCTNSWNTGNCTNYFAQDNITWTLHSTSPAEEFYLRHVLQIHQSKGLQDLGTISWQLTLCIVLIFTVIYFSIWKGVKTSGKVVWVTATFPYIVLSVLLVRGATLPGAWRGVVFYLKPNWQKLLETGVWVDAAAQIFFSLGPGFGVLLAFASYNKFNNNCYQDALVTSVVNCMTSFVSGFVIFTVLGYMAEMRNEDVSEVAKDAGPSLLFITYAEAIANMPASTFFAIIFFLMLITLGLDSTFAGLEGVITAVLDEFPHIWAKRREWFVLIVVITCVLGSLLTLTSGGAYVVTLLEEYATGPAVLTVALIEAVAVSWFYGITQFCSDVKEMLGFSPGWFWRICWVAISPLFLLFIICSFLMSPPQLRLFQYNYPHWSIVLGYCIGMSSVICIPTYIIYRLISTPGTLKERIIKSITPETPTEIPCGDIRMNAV
T3 sequence (Q9WTR4 1-597): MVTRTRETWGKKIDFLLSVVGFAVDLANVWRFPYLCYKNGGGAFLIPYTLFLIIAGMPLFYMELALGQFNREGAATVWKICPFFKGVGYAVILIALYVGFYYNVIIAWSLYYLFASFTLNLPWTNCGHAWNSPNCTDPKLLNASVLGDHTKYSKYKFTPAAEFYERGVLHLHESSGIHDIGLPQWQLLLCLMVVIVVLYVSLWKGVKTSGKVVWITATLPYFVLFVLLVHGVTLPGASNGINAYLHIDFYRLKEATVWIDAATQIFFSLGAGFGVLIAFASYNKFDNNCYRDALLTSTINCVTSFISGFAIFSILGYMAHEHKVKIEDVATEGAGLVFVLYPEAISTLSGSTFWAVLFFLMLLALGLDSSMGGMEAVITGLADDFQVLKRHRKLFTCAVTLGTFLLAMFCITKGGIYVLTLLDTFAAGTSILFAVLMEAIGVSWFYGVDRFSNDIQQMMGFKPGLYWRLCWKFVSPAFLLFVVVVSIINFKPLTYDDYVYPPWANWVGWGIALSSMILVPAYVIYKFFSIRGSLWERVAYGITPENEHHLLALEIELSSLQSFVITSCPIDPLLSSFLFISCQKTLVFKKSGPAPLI
T2 sequence (P23977 whole entry): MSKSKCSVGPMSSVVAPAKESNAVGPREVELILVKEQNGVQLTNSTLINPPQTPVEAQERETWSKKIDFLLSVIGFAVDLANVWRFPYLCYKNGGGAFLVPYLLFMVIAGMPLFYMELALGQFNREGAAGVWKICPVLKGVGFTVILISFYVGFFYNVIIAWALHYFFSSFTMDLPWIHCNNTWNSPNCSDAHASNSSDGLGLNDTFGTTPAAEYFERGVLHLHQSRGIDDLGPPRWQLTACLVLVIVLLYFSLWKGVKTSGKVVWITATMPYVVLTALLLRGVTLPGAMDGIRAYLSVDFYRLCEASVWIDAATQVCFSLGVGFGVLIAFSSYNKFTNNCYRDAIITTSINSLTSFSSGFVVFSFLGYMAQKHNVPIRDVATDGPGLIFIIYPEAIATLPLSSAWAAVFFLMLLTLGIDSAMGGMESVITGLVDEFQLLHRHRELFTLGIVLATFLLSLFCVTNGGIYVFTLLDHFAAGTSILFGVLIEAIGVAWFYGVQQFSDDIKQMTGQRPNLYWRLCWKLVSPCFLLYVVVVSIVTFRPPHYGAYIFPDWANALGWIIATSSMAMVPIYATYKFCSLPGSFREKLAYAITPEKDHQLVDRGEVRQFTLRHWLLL

As to `CCCCC(C(O)c1ccc2c(Cl)c(OC)ccc2c1)N1CCN(Cc2ccccc2)CC1` [IX-26, (1R,2R)-N^1-benzyl-N^4-[1-butyl-2-(5′-chloro-6′-methoxyl-2′-naphthyl)hydroxyethyl]piperazine], the IC50 worked out at 1200 nM in assay [1], 1100 nM in assay [2] and 1200 nM in assay [3].
